Measurements from article PMC9848257, “Design and synthesis of novel rigid dibenzo[b,f]azepines through ring closure technique as promising anticancer candidates against leukaemia and acting as selective topoisomerase II inhibitors and DNA intercalators” (Journal of Enzyme Inhibition and Medicinal Chemistry, 2023).

Experiments:
K-562 = experiment: NCI-60 one-dose screen, K-562; assay type: cell-based; conditions: Homo sapiens, K562; K-562, leukaemia; single dose 10 μM; read-out: Growth inhibition %
Method: (§1) Anti-proliferative effects of the counterparts 4a–g and 5a–g were screened against 60 human cancer cell lines, following the Developmental Therapeutics Program protocol, National Cancer Institute[35].
(§2) The anti-tumour activity of the fourteen synthesised congeners was investigated at the NCI against a panel of 60 cancer cell lines (NCI-60 Cell One-Dose Screen). The tested dibenzo[b,f]azepine derivatives were screened at a single dose level (10 μM), Table 1.

MOLT-4 = experiment: NCI-60 one-dose screen, MOLT-4; assay type: cell-based; conditions: Homo sapiens; MOLT-4, leukaemia; single dose 10 μM; read-out: Growth inhibition %
Method: as §1, §2

NCI-H226 = experiment: NCI-60 one-dose screen, NCI-H226; assay type: cell-based; conditions: Homo sapiens; NCI-H226, non-small cell lung cancer; single dose 10 μM; read-out: Growth inhibition %
Method: as §1, §2

NCI-H322M = experiment: NCI-60 one-dose screen, NCI-H322M; assay type: cell-based; conditions: Homo sapiens, non-small cell lung cancer, single dose 10 μM, read-out: Growth inhibition %
Method: as §1, §2

HCT-116 = experiment: NCI-60 one-dose screen, HCT-116; assay type: cell-based; conditions: Homo sapiens; HCT-116, colon cancer; single dose 10 μM; read-out: Growth inhibition %
Method: as §1, §2

SW-620 = experiment: NCI-60 one-dose screen, SW-620; assay type: cell-based; conditions: Homo sapiens; SW-620, colon cancer; single dose 10 μM; read-out: Growth inhibition %
Method: as §1, §2

SF-295 = experiment: NCI-60 one-dose screen, SF-295; assay type: cell-based; conditions: Homo sapiens; SF-295, CNS cancer; single dose 10 μM; read-out: Growth inhibition %
Method: as §1, §2

SF-539 = experiment: NCI-60 one-dose screen, SF-539; assay type: cell-based; conditions: Homo sapiens; SF-539, CNS cancer; single dose 10 μM; read-out: Growth inhibition %
Method: as §1, §2

M14 = experiment: NCI-60 one-dose screen, M14; assay type: cell-based; conditions: Homo sapiens; M14, melanoma; single dose 10 μM; read-out: Growth inhibition %
Method: as §1, §2

SK-MEL-2 = experiment: NCI-60 one-dose screen, SK-MEL-2; assay type: cell-based; conditions: Homo sapiens; SK-MEL-2, melanoma; single dose 10 μM; read-out: Growth inhibition %
Method: as §1, §2

SK-MEL-28 = experiment: NCI-60 one-dose screen, SK-MEL-28; assay type: cell-based; conditions: Homo sapiens; SK-MEL-28, melanoma; single dose 10 μM; read-out: Growth inhibition %
Method: as §1, §2

IGROV1 = experiment: NCI-60 one-dose screen, IGROV1; assay type: cell-based; conditions: Homo sapiens, IGROV-1; IGROV1, ovarian cancer; single dose 10 μM; read-out: Growth inhibition %
Method: as §1, §2

OVCAR-5 = experiment: NCI-60 one-dose screen, OVCAR-5; assay type: cell-based; conditions: Homo sapiens; OVCAR-5, ovarian cancer; single dose 10 μM; read-out: Growth inhibition %
Method: as §1, §2

NCI/ADR-RES = experiment: NCI-60 one-dose screen, NCI/ADR-RES; assay type: cell-based; conditions: Homo sapiens, ovarian cancer, single dose 10 μM, read-out: Growth inhibition %
Method: as §1, §2

SK-OV-3 = experiment: NCI-60 one-dose screen, SK-OV-3; assay type: cell-based; conditions: Homo sapiens; SK-OV-3, ovarian cancer; single dose 10 μM; read-out: Growth inhibition %
Method: as §1, §2

786-0 = experiment: NCI-60 one-dose screen, 786-0; assay type: cell-based; conditions: Homo sapiens; 786-0, renal cancer; single dose 10 μM; read-out: Growth inhibition %
Method: as §1, §2

RXF 393 = experiment: NCI-60 one-dose screen, RXF 393; assay type: cell-based; conditions: Homo sapiens; RXF 393, renal cancer; single dose 10 μM; read-out: Growth inhibition %
Method: as §1, §2

TK-10 = experiment: NCI-60 one-dose screen, TK-10; assay type: cell-based; conditions: Homo sapiens; TK-10, renal cancer; single dose 10 μM; read-out: Growth inhibition %
Method: as §1, §2

UO-31 = experiment: NCI-60 one-dose screen, UO-31; assay type: cell-based; conditions: Homo sapiens; UO-31, renal cancer; single dose 10 μM; read-out: Growth inhibition %
Method: as §1, §2

PC-3 = experiment: NCI-60 one-dose screen, PC-3; assay type: cell-based; conditions: Homo sapiens; PC-3, prostate cancer; single dose 10 μM; read-out: Growth inhibition %
Method: as §1, §2

MCF-7 = experiment: NCI-60 one-dose screen, MCF-7; assay type: cell-based; conditions: Homo sapiens, MCF7; MCF-7, breast cancer; single dose 10 μM; read-out: Growth inhibition %
Method: as §1, §2

MDA-MB-231-ATCC = experiment: NCI-60 one-dose screen, MDA-MB-231-ATCC; assay type: cell-based; conditions: Homo sapiens, breast cancer, single dose 10 μM, read-out: Growth inhibition %
Method: as §1, §2

MDA-MB-468 = experiment: NCI-60 one-dose screen, MDA-MB-468; assay type: cell-based; conditions: Homo sapiens; MDA-MB-468, breast cancer; single dose 10 μM; read-out: Growth inhibition %
Method: as §1, §2

topoisomerase II = experiment: Topoisomerase II inhibitory assay; assay type: biochemical; conditions: in vitro; doxorubicin co-assayed as reference
Method: Therefore, following the procedure reported by Patra et al., the topoisomerase II activity was evaluated.

Row | Compound | inhibition at 10 µM (K-562) | inhibition at 10 µM (MOLT-4) | inhibition at 10 µM (NCI-H226) | inhibition at 10 µM (NCI-H322M) | inhibition at 10 µM (HCT-116) | inhibition at 10 µM (SW-620) | inhibition at 10 µM (SF-295) | inhibition at 10 µM (SF-539) | inhibition at 10 µM (M14) | inhibition at 10 µM (SK-MEL-2) | inhibition at 10 µM (SK-MEL-28) | inhibition at 10 µM (IGROV1) | inhibition at 10 µM (OVCAR-5) | inhibition at 10 µM (NCI/ADR-RES) | inhibition at 10 µM (SK-OV-3) | inhibition at 10 µM (786-0) | inhibition at 10 µM (RXF 393) | inhibition at 10 µM (TK-10) | inhibition at 10 µM (UO-31) | inhibition at 10 µM (PC-3) | other results
1 | Cc1ccc(C(=O)NNC(=O)N2c3ccccc3C=Cc3ccccc32)cc1 [Compound 4d, N′-(4-Methylbenzoyl)-5H-dibenzo[b,f]azepine-5-carbohydrazide] | < 10% | < 10% | < 10% | < 10% | < 10% | < 10% | < 10% | < 10% | < 10% | < 10% | < 10% | < 10% | < 10% | < 10% | < 10% | < 10% | < 10% | 10.3% | < 10% | < 10% | inhibition at 10 µM (MCF-7): < 10%; inhibition at 10 µM (MDA-MB-231-ATCC): < 10%; inhibition at 10 µM (MDA-MB-468): < 10%; melting point: 151 to 153 °C
2 | O=C(NNC(=O)N1c2ccccc2C=Cc2ccccc21)c1ccc([N+](=O)[O-])cc1 [Compound 4e, N′-(4-Nitrobenzoyl)-5H-dibenzo[b,f]azepine-5-carbohydrazide] | < 10% | < 10% | < 10% | < 10% | < 10% | < 10% | < 10% | < 10% | < 10% | < 10% | < 10% | < 10% | < 10% | < 10% | < 10% | < 10% | < 10% | 10% | < 10% | < 10% | inhibition at 10 µM (MCF-7): < 10%; inhibition at 10 µM (MDA-MB-231-ATCC): < 10%; inhibition at 10 µM (MDA-MB-468): < 10%; melting point: 241 to 243 °C
3 | O=C(NNC(=O)N1c2ccccc2C=Cc2ccccc21)c1ccc2ccccc2c1 [Compound 4f, N′-(2-Naphthoyl)-5H-dibenzo[b,f]azepine-5-carbohydrazide] | 12.8% | < 10% | < 10% | < 10% | < 10% | < 10% | < 10% | < 10% | < 10% | < 10% | < 10% | < 10% | < 10% | < 10% | < 10% | < 10% | < 10% | < 10% | 12% | 25.1% | inhibition at 10 µM (MCF-7): 14%; inhibition at 10 µM (MDA-MB-231-ATCC): < 10%; inhibition at 10 µM (MDA-MB-468): 12.3%; melting point: 243 to 245 °C
4 | O=C(Cc1ccccc1)NNC(=O)N1c2ccccc2C=Cc2ccccc21 [Compound 4g, N′-(2-Phenylacetyl)-5H-dibenzo[b,f]azepine-5-carbohydrazide] | < 10% | < 10% | < 10% | < 10% | < 10% | < 10% | < 10% | < 10% | < 10% | < 10% | < 10% | < 10% | < 10% | < 10% | < 10% | < 10% | < 10% | < 10% | < 10% | < 10% | inhibition at 10 µM (MCF-7): < 10%; inhibition at 10 µM (MDA-MB-231-ATCC): < 10%; inhibition at 10 µM (MDA-MB-468): < 10%; melting point: 134 to 136 °C
5 | C1=Cc2ccccc2N(c2nnc(-c3ccccc3)o2)c2ccccc21 [Compound 5a, 2-(5 h-Dibenzo[b,f]azepin-5-yl)-5-phenyl-1,3,4-oxadiazole] | 32.2% | 16.5% | < 10% | 50.2% | 54.2% | < 10% | < 10% | < 10% | 12.1% | < 10% | 28% | < 10% | < 10% | < 10% | < 10% | 20% | < 10% | 16.1% | 39.4% | < 10% | inhibition at 10 µM (MCF-7): 14.4%; inhibition at 10 µM (MDA-MB-231-ATCC): < 10%; inhibition at 10 µM (MDA-MB-468): 26.1%; IC50 (topoisomerase II): 15.6 µM; melting point: 209 to 211 °C
